In US20130316946A1, “EXTENDED RECOMBINANT POLYPEPTIDE-MODIFIED C-PEPTIDE” (Cebix, Inc., priority 2012, published 2013):

Experiments:
[1] = in vivo; cited from earlier work
[2] = Pharmacokinetics of unmodified C-peptide in beagle dogs after a single S.C. dose; assay type: in vivo
Description: A pharmacokinetic (PK) study was conducted to determine the C-peptide PK profile with unmodified C-peptide in beagle dogs.
Methods: Two male and one female dog received S.C. the unmodified synthetic human C-peptide (0.5 mg/kg; 0.025 mL/kg) formulated in phosphate buffered saline (20 mg/mL). Dogs were bled by venipuncture and blood samples were collected at predetermined time points over 14 days. Plasma samples were obtained after centrifugation of the blood (3,000 rpm for 10 minutes) and stored at −80° C. until analysis. A CRO with Good Laboratory Practice (GLP) capabilities (MicroConstants, Inc.; San Diego, Calif.) performed the bioanalytical work. Plasma levels of C-peptide were measured by an enzyme-linked immunosorbant assay (ELISA) technique based on a commercial kit for human C-peptide determination (Mercodia; catalog number 10-1136-01) using the manufacturer's instructions. Results were expressed as C-peptide concentrations. For the PK analysis, the below quantitation level (BQL) was treated as zero and nominal time points were used for all calculations. PK parameters were determined by standard model independent methods based on the individual plasma concentration-time data for each animal using model 200 in WinNonlin Professional 5.2.1 (Pharsight Corp., Mountain View, Calif.).

[3] = Stability of C-peptide-XTEN in rat kidney lysate; assay type: in vitro ADME; conditions: 37° C., over 3 days, SDS PAGE / Western
Description: A fusion protein […] followed by detection using Western analysis and detection with antibodies against C-peptide. […] The in vivo stability of the fusion protein is tested in plasma samples wherein the C-peptide_AE864 is immunoprecipitated and analyzed by SDS PAGE as described above.

[4] = Stability of C-peptide-XTEN in monkey plasma; assay type: in vitro ADME; conditions: 37° C., over 7 days, SDS PAGE / Western
Description: A fusion protein containing XTEN_AE864 fused to the N-terminus of C-peptide is incubated in monkey plasma and rat kidney lysate for up to 7 days at 37° C. Samples are withdrawn at time 0, Day 1 and Day 7 and analyzed by SDS PAGE followed by detection using Western analysis and detection with antibodies against C-peptide. […] The in vivo stability of the fusion protein is tested in plasma samples wherein the C-peptide_AE864 is immunoprecipitated and analyzed by SDS PAGE as described above.

Which “peak time of effect” value [1] does the source give for Glulisine here?
The value was “around 30 minutes”.

Which “peak time of effect” value [1] does the source give for Lispro here?
Its value is “around 30 minutes”.

Which “peak time of effect” value [1] does the source give for Aspart here?
The value was “around 30 minutes”.

Which results are given for Glargine insulin?
duration of activity [1]: 24 h; peak time of effect [1]: no peak effect

Which onset of action [1] does the source give for Regular insulin here?
Its onset of action is 30 to 60 min.

What does the source list for `CC(C)C[C@H](NC(=O)[C@H](C)NC(=O)[C@H](CC(C)C)NC(=O)[C@@H]1CCCN1C(=O)[C@H](CCC(N)=O)NC(=O)[C@H](CC(C)C)NC(=O)[C@H](CO)NC(=O)CNC(=O)[C@H](C)NC(=O)CNC(=O)[C@@H]1CCCN1C(=O)CNC(=O)CNC(=O)CNC(=O)[C@H](CC(C)C)NC(=O)[C@H](CCC(=O)O)NC(=O)[C@@H](NC(=O)[C@H](CCC(N)=O)NC(=O)CNC(=O)[C@@H](NC(=O)[C@H](CCC(N)=O)NC(=O)[C@H](CC(C)C)NC(=O)[C@H](CC(=O)O)NC(=O)[C@H](CCC(=O)O)NC(=O)[C@H](C)NC(=O)[C@@H](N)CCC(=O)O)C(C)C)C(C)C)C(=O)N[C@@H](CCC(=O)O)C(=O)NCC(=O)N[C@@H](CO)C(=O)N[C@@H](CC(C)C)C(=O)N[C@@H](CCC(N)=O)C(=O)O` [CP-AQ, human C-peptide]?
circulating levels of C-peptide below quantitation level (BQL) ([2]; dog, in vivo, sc): BQL within half a day; tolerability (clinical abnormalities) ([2]; dogs, single S.C. dose 0.5 mg/kg): well tolerated

B1: AE864: XTEN polypeptide of 864 amino acid residues, SEQ ID NO:70 (protein)
chain: GSPAGSPTSTEEGTSESATPESGPGTSTEPSEGSAPGSPAGSPTSTEEGTSTEPSEGSAPGTSTEPSEGSAPGTSESATPESGPGSEPATSGSETPGSEPATSGSETPGSPAGSPTSTEEGTSESATPESGPGTSTEPSEGSAPGTSTEPSEGSAPGSPAGSPTSTEEGTSTEPSEGSAPGTSTEPSEGSAPGTSESATPESGPGTSTEPSEGSAPGTSESATPESGPGSEPATSGSETPGTSTEPSEGSAPGTSTEPSEGSAPGTSESATPESGPGTSESATPESGPGSPAGSPTSTEEGTSESATPESGPGSEPATSGSETPGTSESATPESGPGTSTEPSEGSAPGTSTEPSEGSAPGTSTEPSEGSAPGTSTEPSEGSAPGTSTEPSEGSAPGTSTEPSEGSAPGSPAGSPTSTEEGTSTEPSEGSAPGTSESATPESGPGSEPATSGSETPGTSESATPESGPGSEPATSGSETPGTSESATPESGPGTSTEPSEGSAPGTSESATPESGPGSPAGSPTSTEEGSPAGSPTSTEEGSPAGSPTSTEEGTSESATPESGPGTSTEPSEGSAPGTSESATPESGPGSEPATSGSETPGTSESATPESGPGSEPATSGSETPGTSESATPESGPGTSTEPSEGSAPGSPAGSPTSTEEGTSESATPESGPGSEPATSGSETPGTSESATPESGPGSPAGSPTSTEEGSPAGSPTSTEEGTSTEPSEGSAPGTSESATPESGPGTSESATPESGPGTSESATPESGPGSEPATSGSETPGSEPATSGSETPGSPAGSPTSTEEGTSTEPSEGSAPGTSTEPSEGSAPGSEPATSGSETPGTSESATPESGPGTSTEPSEGSAP
modifications: AE864 XTEN polypeptide
For B1, which “degradation in rat kidney lysate” value [3] is on record?
Its value is “rapidly degraded”.

And the “degradation in monkey plasma” value [4]?
The value was “negligible signs of degradation”.
